Results on one compound are retold here after patent publication US7626026B2, “Pyrrolo-indole and pyrrolo-quinoline derivatives as prodrugs for tumour treatment” (University of Bradford, priority 2001, dated 2009).

The term IC50 denotes the concentration at which inhibition is half-maximal. Lower therefore signals inhibition by little substance.

Molecules are shown by their SMILES. Marks after values point to notes of the source that are not given here.

The subject of the data set is Chinese Hamster Ovary (CHO) cell. Put plainly: MTT cytotoxicity in CHO cells, with and without activation by NADPH-supplemented rat liver microsomes. The format is cell-based. Particulars: for IC50: Cricetulus griseus, CHO, cells incubated 24 hours, MTT, mean±sd for three experiments. Here is the method: Test compound (synthesised in example 3) activation by CYP enzymes was carried out using NADPH supplemented rat liver microsomes; Incubation mixtures comprised microsomal protein (1 mg/ml), reduced-nicotinamide adenine dinucleotide phosphate (NADPH, 10 mM) and phosphate buffer (pH7.4, 100 mM). Test compound (0.01-100 μM final concentration) in DMSO (20 μl) was added to the microsomal incubation mixtures (0.5 ml) and incubated for 60 min at 37C. Control incubates contained test compound and microsomal incubation mixture terminated at 0 time. All incubations were terminated by addition of an equal volume of ice-cold acetonitrile and microfuged for 3 min. Aliquots of the supernatant were added to cells in culture.
Chinese Hamster Ovary (CHO) cell were grown in MEM supplemented with. 10% dialysed FBS and G418 (400 μg/ml). All cells were seeded at an initial density of 1000 cells/well in 96-well-plates, incubation at 37° C. for 24 hours. Aliquots (0.1 ml) of the test compound/microsomal/acetonitrile supernatnant was then added to the CHO cells. Cells were then incubated for 24 hours at 37° C., 5% CO2. After this time period MTT (50 μl; 2 mg/ml stock solution) was added to each well and cells were incubated for a further 4 hours. During this time period MTT, a hydrogen acceptor tetrazolium salt, is reduced to formazan dye by mitochondrial dehydrogenase of viable cells. The media was aspirated from cells and DMSO (100 μl/well) added to solubilise the coloured formazan dye. Absorbance of the formazan dye in the 96-well-plates was then determined at 550 nm. The effect of microsomal activation by the test compound on the arrest of CHO cell growth could be determined by comparing the IC50 (concentration that inhibited cell growth by 50%) with and without microsomal incubation.
Effect of compound 3.8 and its metabolism (activation) product on the survival of Chinese hamster ovary cells in culture. Cells were incubated for 24 hours with supernatants from reaction mixtures of compound 3.8 with NADPH fortified rat liver microsomes. […] Values are expressed as the mean±sd for three experiments. […]
(Liver microsomes are a subcellular fraction often used to study metabolism.)

Regarding `CCOC(=O)c1cc2c3c(ccc2[nH]1)N(C(=O)c1cc2cc(OC)ccc2[nH]1)CC3CCl` (stereo not drawn) [3.8, Ethyl 1-(chloromethyl)-3-((5-methoxy-1H-indol-2-yl)carbonyl)-1,2-dihydro-3H-pyrrolo[3,2-e]indole-7-carboxylate], the “AF (activity factor, ratio of IC50 cytotoxicity values obtained for ± activation)” value (CHO cells, IC50 −activation / IC50 +activation) is given as 71.7*. Further, the IC50 is, setting by setting: (control incubate terminated at 0 time (no microsomal activation)) 4.3 ± 0.41 µM; (supernatant after 60 min incubation at 37C with NADPH-fortified rat liver microsomes) 0.06 ± 0.02 µM.
